This data set has as its system cell layers. Kind of data set: USP (87) biological reactivity testing (cytotoxicity). It is filed as cell-based. On the set-up: key: “severe” reactivity meaning there was nearly complete destruction of all cell layers. The note with it: dilutions of 50 ppm BAK with EDTA in saline ophthalmic vehicle, down to 5% of use concentration. The protocol: Testing was conducted by a neutral third party laboratory to determine the cytotoxicity of benzalkonium chloride (BAK) when used as a preservative in a standard topical saline ophthalmic solution vehicle. Test solutions of BAK at various dilutions at the typical preservation concentration used in ophthalmic products (50 ppm) were subject to USP (87) biological reactivity testing and graded according to reactivity. All solutions contained EDTA as an adjunct to enable the BAK to be active against gram negative bacteria. All negative and positive controls were nominal.

Consider benzalkonium chloride [BAK], for which the “USP (87) biological reactivity grade” value is on record as “severe”.

The values are drawn from US12005139B2, “Ophthalmic formulations and related methods” (EternaTear, Inc., priority 2022, dated 2024).
